We go through twelve compounds from patent US9371320B2, “Heterocyclic compound” (TAKEDA PHARMACEUTICAL COMPANY LIMITED, priority 2012, dated 2016).

One assay addresses T1, JAK1 (Homo sapiens, UniProt P23458).
T1 construct: purchased Invitrogen
Put plainly: JAK1 enzyme inhibition test (LANCE method). It is filed as biochemical. The conditions noted are these: for inhibition at 1 µM: test compound 1 μM, read-out: Inhibitory rate (%) JAK1 1 μM; for inhibition at 10 µM: test compound 10 μM, read-out: Inhibitory rate (%) JAK1 10 μM. Summed up: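 Reactions ran 1 h at room temperature in HEPES pH 7.5/MgCl2 buffer, with ATP solution at 150 μM and JAK1 and ULight peptide solutions at 187.5 ng/mL and 300 nM. Reactions were stopped with EDTA, and phosphorylation was read by Eu antibody time-resolved fluorescence at 665 nm. Inhibition was scaled to a no-enzyme control as 100%.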
For orientation: In TR-FRET formats the signal depends on donor and acceptor labels being close together.

Another assay concerns the target T2, Tyk2 (Homo sapiens, UniProt P29597).
T2 construct: purchased Invitrogen
Put plainly: Tyk2 enzyme inhibition test (LANCE method). It is filed as biochemical. The settings on record: for inhibition at 1 µM: test compound 1 μM, read-out: Inhibitory rate (%) Tyk2 1 μM; for inhibition at 10 µM: test compound 10 μM, read-out: Inhibitory rate (%) Tyk2 10 μM. Summed up:
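LANCE TR-FRET read-out (ex 340/em 665 nm, 100 μs delay) of ULight-JAK1 phosphorylation, with no-enzyme wells as 100% inhibition. Reaction run 1 h at room temperature in pH 7.5 HEPES buffer; enzyme 375 ng/mL, substrate 300 nM and ATP 30 μM are solution concentrations before mixing.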

T2 sequence (P29597 whole entry): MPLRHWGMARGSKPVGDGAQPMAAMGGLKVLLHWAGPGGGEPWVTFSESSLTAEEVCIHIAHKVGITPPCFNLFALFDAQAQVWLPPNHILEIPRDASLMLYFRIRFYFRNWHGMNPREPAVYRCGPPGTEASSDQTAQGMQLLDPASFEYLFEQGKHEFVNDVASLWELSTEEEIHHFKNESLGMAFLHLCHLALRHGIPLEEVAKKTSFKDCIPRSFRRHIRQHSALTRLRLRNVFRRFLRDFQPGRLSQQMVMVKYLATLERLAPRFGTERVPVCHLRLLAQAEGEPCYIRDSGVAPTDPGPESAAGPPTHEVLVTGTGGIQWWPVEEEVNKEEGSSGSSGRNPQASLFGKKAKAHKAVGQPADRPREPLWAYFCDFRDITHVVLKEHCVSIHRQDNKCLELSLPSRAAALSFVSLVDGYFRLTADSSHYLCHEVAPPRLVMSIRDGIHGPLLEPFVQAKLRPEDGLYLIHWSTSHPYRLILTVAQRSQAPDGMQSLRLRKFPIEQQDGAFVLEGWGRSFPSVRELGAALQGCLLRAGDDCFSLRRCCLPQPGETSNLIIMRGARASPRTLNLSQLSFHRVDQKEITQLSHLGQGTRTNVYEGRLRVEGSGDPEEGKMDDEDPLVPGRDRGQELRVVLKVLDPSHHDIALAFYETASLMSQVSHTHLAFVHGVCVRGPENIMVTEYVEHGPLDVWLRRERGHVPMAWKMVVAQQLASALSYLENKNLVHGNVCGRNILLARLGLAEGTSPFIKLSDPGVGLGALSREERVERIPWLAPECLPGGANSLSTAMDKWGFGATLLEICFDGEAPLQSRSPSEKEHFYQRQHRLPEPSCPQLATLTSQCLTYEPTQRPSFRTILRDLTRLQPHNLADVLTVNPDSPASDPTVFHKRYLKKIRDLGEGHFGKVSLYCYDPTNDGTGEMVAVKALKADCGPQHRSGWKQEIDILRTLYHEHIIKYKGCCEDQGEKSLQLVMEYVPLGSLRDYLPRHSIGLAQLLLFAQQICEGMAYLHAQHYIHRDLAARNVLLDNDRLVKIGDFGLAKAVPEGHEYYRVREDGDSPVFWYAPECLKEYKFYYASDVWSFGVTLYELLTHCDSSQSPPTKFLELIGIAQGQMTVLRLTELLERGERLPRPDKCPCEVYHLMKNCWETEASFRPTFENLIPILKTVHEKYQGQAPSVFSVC
T1 sequence (P23458 whole entry): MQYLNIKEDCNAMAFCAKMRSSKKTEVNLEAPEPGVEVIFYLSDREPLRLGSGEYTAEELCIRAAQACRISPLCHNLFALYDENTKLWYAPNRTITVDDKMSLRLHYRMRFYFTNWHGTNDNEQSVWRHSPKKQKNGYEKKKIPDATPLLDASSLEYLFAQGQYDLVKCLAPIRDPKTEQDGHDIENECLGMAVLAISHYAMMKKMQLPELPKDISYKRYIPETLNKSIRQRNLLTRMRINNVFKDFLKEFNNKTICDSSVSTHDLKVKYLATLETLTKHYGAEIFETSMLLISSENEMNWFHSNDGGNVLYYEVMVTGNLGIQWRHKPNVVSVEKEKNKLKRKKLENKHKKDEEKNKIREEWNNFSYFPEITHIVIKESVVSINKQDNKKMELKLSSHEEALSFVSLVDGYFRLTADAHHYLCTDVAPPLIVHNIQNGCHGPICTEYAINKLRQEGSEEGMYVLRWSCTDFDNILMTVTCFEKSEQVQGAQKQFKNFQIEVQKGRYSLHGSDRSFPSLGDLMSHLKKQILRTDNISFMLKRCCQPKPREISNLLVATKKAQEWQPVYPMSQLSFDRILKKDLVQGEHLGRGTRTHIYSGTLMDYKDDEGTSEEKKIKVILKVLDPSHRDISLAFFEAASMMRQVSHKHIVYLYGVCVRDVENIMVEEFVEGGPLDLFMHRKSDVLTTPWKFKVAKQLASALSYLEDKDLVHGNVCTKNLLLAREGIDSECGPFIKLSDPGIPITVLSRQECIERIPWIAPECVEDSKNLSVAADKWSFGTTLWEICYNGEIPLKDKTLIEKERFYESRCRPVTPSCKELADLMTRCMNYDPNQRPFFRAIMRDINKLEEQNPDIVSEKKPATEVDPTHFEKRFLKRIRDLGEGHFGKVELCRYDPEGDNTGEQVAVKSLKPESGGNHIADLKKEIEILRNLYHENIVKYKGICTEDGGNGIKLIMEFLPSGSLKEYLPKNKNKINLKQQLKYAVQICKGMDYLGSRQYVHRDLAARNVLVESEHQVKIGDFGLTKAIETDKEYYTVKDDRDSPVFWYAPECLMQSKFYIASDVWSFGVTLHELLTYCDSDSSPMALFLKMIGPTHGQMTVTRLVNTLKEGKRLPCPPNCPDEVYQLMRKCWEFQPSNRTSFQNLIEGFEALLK

Take `CCOC(=O)c1ccc(-c2nn(-c3c(F)cccc3F)c3cc[nH]c(=O)c23)cn1` [Example 259, ethyl 5-(1-(2,6-difluorophenyl)-4-oxo-4,5-dihydro-1H-pyrazolo[4,3-c]pyridin-3-yl)pyridine-2-carboxylate]: the inhibition at 1 µM on JAK1 was determined as 59%; at Tyk2, 81%.
For `COC(=O)c1ccc(-c2nn(-c3c(F)cccc3F)c3cc[nH]c(=O)c23)cc1` [Example 260, methyl 4-(1-(2,6-difluorophenyl)-4-oxo-4,5-dihydro-1H-pyrazolo[4,3-c]pyridin-3-yl)benzoate], in that order: 77% and 94%.
For `O=c1[nH]ccc2c1c(-c1cccc(CN3CCC(F)(F)C3)c1)nn2-c1c(F)cccc1F` [Example 261, 1-(2,6-difluorophenyl)-3-(3-((3,3-difluoropyrrolidin-1-yl)methyl)phenyl)-1,5-dihydro-4H-pyrazolo[4,3-c]pyridin-4-one], in that order: 41% and 94%.
For `CC[C@@H](COC)n1nc(-c2csc(C(N)=O)c2)c2c(=O)[nH]ccc21` [Example 262, 4-(1-((2S)-1-methoxybutan-2-yl)-4-oxo-4,5-dihydro-1H-pyrazolo[4,3-c]pyridin-3-yl)thiophene-2-carboxamide] the same measures were 97% and 92%.
For `CC[C@H](COC)n1nc(-c2csc(C(N)=O)c2)c2c(=O)[nH]ccc21` [Example 263, 4-(1-((2R)-1-methoxybutan-2-yl)-4-oxo-4,5-dihydro-1H-pyrazolo[4,3-c]pyridin-3-yl)thiophene-2-carboxamide], the inhibition at 1 µM at JAK1 was determined as 97%; at Tyk2 it was 90%.
For the compound `CC(C)(C)n1nc(N)c2c(=O)[nH]ccc21` [Example 264, 3-amino-1-tert-butyl-1,5-dihydro-4H-pyrazolo[4,3-c]pyridin-4-one], the figures for the inhibition at 10 µM on JAK1 and at Tyk2 were 44% and 12%, respectively.
For `CC(C)(C)n1nc(NC(=O)c2ccccc2)c2c(=O)[nH]ccc21` [Example 265, N-(1-tert-butyl-4-oxo-4,5-dihydro-1H-pyrazolo[4,3-c]pyridin-3-yl)benzamide] the same measures were 21% and 24%.
Turning to `O=c1[nH]ccc2c1c(-c1ccc(N3CCOCC3)cc1)nn2C1CCC(F)(F)CC1` [Example 266, 1-(4,4-difluorocyclohexyl)-3-(4-(morpholin-4-yl)phenyl)-1,5-dihydro-4H-pyrazolo[4,3-c]pyridin-4-one], the results for the inhibition at 1 µM on JAK1 and at Tyk2 were 85% and 91%, respectively.
In the case of `NC(=O)c1ccc(F)c(-c2nn(-c3c(F)cccc3F)c3cc[nH]c(=O)c23)c1` [Example 267, 3-(1-(2,6-difluorophenyl)-4-oxo-4,5-dihydro-1H-pyrazolo[4,3-c]pyridin-3-yl)-4-fluorobenzamide], the results for the inhibition at 10 µM at JAK1 and at Tyk2 were 17% and 31%, respectively.
Consider `NC(=O)c1cc(F)cc(-c2nn(-c3c(F)cccc3F)c3cc[nH]c(=O)c23)c1` [Example 268, 3-(1-(2,6-difluorophenyl)-4-oxo-4,5-dihydro-1H-pyrazolo[4,3-c]pyridin-3-yl)-5-fluorobenzamide], for which the inhibition at 1 µM came to 4% on JAK1 and 33% on Tyk2.
`NC(=O)c1ccc(F)c(-c2nn(-c3c(F)cccc3F)c3c(Cl)c[nH]c(=O)c23)c1` [Example 269, 3-(7-chloro-1-(2,6-difluorophenyl)-4-oxo-4,5-dihydro-1H-pyrazolo[4,3-c]pyridin-3-yl)-4-fluorobenzamide]: the inhibition at 10 µM on JAK1 was determined as 24%; at Tyk2 it was 29%.
Regarding `NC(=O)c1cc(F)cc(-c2nn(-c3c(F)cccc3F)c3c(Cl)c[nH]c(=O)c23)c1` [Example 270, 3-(7-chloro-1-(2,6-difluorophenyl)-4-oxo-4,5-dihydro-1H-pyrazolo[4,3-c]pyridin-3-yl)-5-fluorobenzamide], the inhibition at 1 µM was found to be 0% at JAK1 and 69% at Tyk2.
